# Measured values reported in patent publication US8410132B2, “Modulators of cystic fibrosis transmembrane conductance regulator” (Vertex Pharmaceuticals Incorporated, priority 2007, dated 2013).
# Molecular target: T1, ΔF508-CFTR (Homo sapiens, UniProt P13569, DEL508-508)
# T1 construct: expressed in transfected cells; host or cells: Fisher rat epithelial (FRT) cells expressing ΔF508-CFTR (Ussing chamber); NIH3T3 cells stably expressing ΔF508-CFTR (whole-cell recordings)
# Experiment: Assay for detecting and measuring ΔF508-CFTR potentiation properties of compounds (membrane potential optical method / Ussing chamber)
# Type: cell-based
# Conditions: for Emax: relative efficacy, efficacy compared to that of the known potentiator genistein; for EC50: ΔF508-CFTR potentiation
# From the text: Assays for Detecting and Measuring ΔF508-CFTR Potentiation Properties of Compounds
# Membrane Potential Optical Methods for Assaying ΔF508-CFTR Modulation Properties of Compounds
# The optical membrane potential assay utilized voltage-sensitive FRET sensors described by Gonzalez and Tsien (See, Gonzalez, J. E. and R. Y. Tsien (1995) “Voltage sensing by fluorescence resonance energy transfer in single cells” Biophys J 69(4): 1272-80, and Gonzalez, J. E. and R. Y. Tsien (1997) “Improved indicators of cell membrane potential that use fluorescence resonance energy transfer” Chem Biol 4(4): 269-77) in combination with instrumentation for measuring fluorescence changes such as the Voltage/Ion Probe Reader (VIPR) (See, Gonzalez, J. E., K. Oades, et al. (1999) “Cell-based assays and instrumentation for screening ion-channel targets” Drug Discov Today 4(9): 431-439).
# These voltage sensitive assays are based on the change in fluorescence resonant energy transfer (FRET) between the membrane-soluble, voltage-sensitive dye, DiSBAC2(3), and a fluorescent phospholipid, CC2-DMPE, which is attached to the outer leaflet of the plasma membrane and acts as a FRET donor. Changes in membrane potential (Vm) cause the negatively charged DiSBAC2(3) to redistribute across the plasma membrane and the amount of energy transfer from CC2-DMPE changes accordingly. The changes in fluorescence emission were monitored using VIPR™ II, which is an integrated liquid handler and fluorescent detector designed to conduct cell-based screens in 96- or 384-well microtiter plates.
# Identification of Potentiator Compounds
# Typical protocol utilized a basolateral to apical membrane Cl^− concentration gradient. To set up this gradient, normal ringers was used on the basolateral membrane and was permeabilized with nystatin (360 μg/ml), whereas apical NaCl was replaced by equimolar sodium gluconate (titrated to pH 7.4 with NaOH) to give a large Cl^− concentration gradient across the epithelium. All experiments were performed 30 min after nystatin permeabilization. Forskolin (10 μM) and all test compounds were added to both sides of the cell culture inserts. The efficacy of the putative ΔF508-CFTR potentiators was compared to that of the known potentiator, genistein.
# Fisher rat epithelial (FRT) cells expressing ΔF508-CFTR (FRTΔ^F508-CFTR) were used for Ussing chamber experiments for the putative ΔF508-CFTR modulators identified from our optical assays. The cells were cultured on Costar Snapwell cell culture inserts and cultured for five days at 37° C. and 5% CO2 in Coon's modified Ham's F-12 medium supplemented with 5% fetal calf serum, 100 U/ml penicillin, and 100 μg/ml streptomycin. Prior to use for characterizing the potentiator activity of compounds, the cells were incubated at 27° C. for 16-48 hrs to correct for the ΔF508-CFTR. To determine the activity of corrections compounds, the cells were incubated at 27° C. or 37° C. with and without the compounds for 24 hours.
# Compounds of the invention are useful as modulators of ATP binding cassette transporters. Table 3 below illustrates the EC50 and relative efficacy of certain embodiments in Table 1.
# T1 sequence (P13569 with tags, fused parts or gaps DEL508-508): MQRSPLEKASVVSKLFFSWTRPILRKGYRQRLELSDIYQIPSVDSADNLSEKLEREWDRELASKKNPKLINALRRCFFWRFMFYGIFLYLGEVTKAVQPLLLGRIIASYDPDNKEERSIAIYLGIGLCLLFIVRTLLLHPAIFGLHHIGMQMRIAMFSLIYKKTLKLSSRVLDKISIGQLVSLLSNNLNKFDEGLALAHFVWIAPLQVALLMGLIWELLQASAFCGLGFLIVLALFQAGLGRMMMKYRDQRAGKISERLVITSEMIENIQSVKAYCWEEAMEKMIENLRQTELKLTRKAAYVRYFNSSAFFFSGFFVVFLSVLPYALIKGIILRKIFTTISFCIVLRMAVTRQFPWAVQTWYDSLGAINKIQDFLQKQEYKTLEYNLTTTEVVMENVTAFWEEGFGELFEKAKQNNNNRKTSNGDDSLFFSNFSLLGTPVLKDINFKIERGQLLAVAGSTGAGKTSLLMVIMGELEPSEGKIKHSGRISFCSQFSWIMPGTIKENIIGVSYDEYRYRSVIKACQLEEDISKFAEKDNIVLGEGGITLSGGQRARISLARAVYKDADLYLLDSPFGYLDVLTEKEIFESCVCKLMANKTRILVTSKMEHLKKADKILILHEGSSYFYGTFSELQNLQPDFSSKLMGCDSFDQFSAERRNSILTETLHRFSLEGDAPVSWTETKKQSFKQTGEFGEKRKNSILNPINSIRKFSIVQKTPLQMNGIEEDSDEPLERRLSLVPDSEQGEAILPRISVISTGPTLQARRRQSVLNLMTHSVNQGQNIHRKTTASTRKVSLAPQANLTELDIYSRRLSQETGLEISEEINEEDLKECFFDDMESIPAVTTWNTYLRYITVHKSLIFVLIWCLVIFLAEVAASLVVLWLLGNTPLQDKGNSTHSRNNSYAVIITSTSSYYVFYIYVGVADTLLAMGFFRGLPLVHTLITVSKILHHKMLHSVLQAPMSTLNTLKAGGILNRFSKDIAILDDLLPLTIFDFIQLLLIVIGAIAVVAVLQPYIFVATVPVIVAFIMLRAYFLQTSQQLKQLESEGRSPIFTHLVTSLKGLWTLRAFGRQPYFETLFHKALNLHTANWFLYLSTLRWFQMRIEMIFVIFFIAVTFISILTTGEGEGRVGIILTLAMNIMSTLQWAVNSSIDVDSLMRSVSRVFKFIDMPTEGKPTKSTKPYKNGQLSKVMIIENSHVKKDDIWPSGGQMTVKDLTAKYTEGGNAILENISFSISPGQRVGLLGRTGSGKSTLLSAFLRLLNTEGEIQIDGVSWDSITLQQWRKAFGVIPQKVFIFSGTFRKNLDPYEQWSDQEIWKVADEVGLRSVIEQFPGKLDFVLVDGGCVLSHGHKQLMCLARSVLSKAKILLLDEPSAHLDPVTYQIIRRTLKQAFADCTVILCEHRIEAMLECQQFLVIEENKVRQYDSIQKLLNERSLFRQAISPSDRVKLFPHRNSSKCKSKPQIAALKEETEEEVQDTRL
Emax [%],EC50 [µM],SMILES
25 to 100,< 10,"CC1(C)CCCN(c2ccc(NC(=O)c3c[nH]c4cnccc4c3=O)c(C(F)(F)F)c2)C1 [Cmpd 18, N-(4-(3,3-dimethylpiperidin-l-yl)-2-(trifluoromethyl)phenyl)-4-oxo-1,4-dihydro-1,7-naphthyridine-3-carboxamide]"
25 to 100,< 10,"O=C(Nc1cc2[nH]ccc2cc1C(F)(F)F)c1c[nH]c2cnccc2c1=O [Cmpd 14, 4-oxo-N-(5-(trifluoromethyl)-1H-indol-6-yl)-1,4-dihydro-1,7-naphthyridine-3-carboxamide]"
25 to 100,< 10,"CC(C)(C)c1cc2cc[nH]c2cc1NC(=O)c1c[nH]c2cnccc2c1=O [Cmpd 10, N-(5-tert-butyl-1H-indol-6-yl)-4-oxo-1,4-dihydro-1,7-naphthyridine-3-carboxamide]"
25 to 100,< 10,"O=C(Nc1ccc(N2CCCC2)cc1C(F)(F)F)c1c[nH]c2cnccc2c1=O [Cmpd 11, 4-oxo-N-(4-(pyrrolidin-1-yl)-2-(trifluoromethyl)phenyl)-1,4-dihydro-1,7-naphthyridine-3-carboxamide]"
25 to 100,< 10,"C[C@H]1CCCN1c1ccc(NC(=O)c2c[nH]c3cnccc3c2=O)c(C(F)(F)F)c1 [Cmpd 12, (S)-N-(4-(2-methylpyrrolidin-1-yl)-2-(trifluoromethyl)phenyl)-4-oxo-1,4-dihydro-1,7-naphthyridine-3-carboxamide]"
25 to 100,< 10,"O=C(Nc1ccc(N2CCCC2)cc1C(F)(F)F)c1c[nH]c2ccncc2c1=O [Cmpd 7, 4-oxo-N-(4-(pyrrolidin-1-yl)-2-(trifluoromethyl)phenyl)-1,4-dihydro-1,6-naphthyridine-3-carboxamide]"
25 to 100,< 10,"O=C(Nc1ccccc1-c1ccccc1)c1c[nH]c2ccncc2c1=O [Cmpd 5, N-(biphenyl-2-yl)-4-oxo-1,4-dihydro-1,6-naphthyridine-3-carboxamide]"
25 to 100,< 10,"CC(C)(C)c1cc(C(C)(C)C)c(NC(=O)c2c[nH]c3cnccc3c2=O)cc1O [Cmpd 9, N-(2,4-di-tert-butyl-5-hydroxyphenyl)-4-oxo-1,4-dihydro-1,7-naphthyridine-3-carboxamide]"
25 to 100,< 10,"O=C(NCC(c1ccccc1)c1ccccc1)c1c[nH]c2ccncc2c1=O [Cmpd 2, N-(2,2-diphenylethyl)-4-oxo-1,4-dihydro-1,6-naphthyridine-3-carboxamide]"
> 100,< 10,"O=C(NC(c1ccccc1)c1ccccc1)c1c[nH]c2ccncc2c1=O [Cmpd 1, N-benzhydryl-4-oxo-1,4-dihydro-1,6-naphthyridine-3-carboxamide]"
< 25,10 to 25,"Cc1cc2c(=O)c(C(=O)Nc3cc(O)c(C4(C)CCCCC4)cc3F)c[nH]c2cn1 [Cmpd 17, N-(2-fluoro-5-hydroxy-4-(1-methylcyclohexyl)phenyl)-6-methyl-4-oxo-1,4-dihydro-1,7-naphthyridine-3-carboxamide]"
25 to 100,< 10,"Cc1cc2c(=O)c(C(=O)Nc3cc4[nH]ccc4cc3C(F)(F)F)c[nH]c2cn1 [Cmpd 15, 6-methyl-4-oxo-N-(5-(trifluoromethyl)-1H-indol-6-yl)-1,4-dihydro-1,7-naphthyridine-3-carboxamide]"
25 to 100,< 10,"O=C(NCC1(c2ccc(OC(F)(F)F)cc2)CCCC1)c1c[nH]c2ccncc2c1=O [Cmpd 8, 4-oxo-N-((1-(4-(trifluoromethoxy)phenyl)-cyclopentyl)methyl)-1,4-dihydro-1,6-naphthyridine-3-carboxamide]"
25 to 100,< 10,"CCCc1ccccc1NC(=O)c1c[nH]c2ccncc2c1=O [Cmpd 3, 4-oxo-N-(2-propylphenyl)-1,4-dihydro-1,6-naphthyridine-3-carboxamide]"
25 to 100,< 10,"O=C(Nc1ccc2c(C(F)(F)F)c[nH]c2c1)c1c[nH]c2cnccc2c1=O [Cmpd 16, 4-oxo-N-(3-(trifluoromethyl)-1H-indol-6-yl)-1,4-dihydro-1,7-naphthyridine-3-carboxamide]"
25 to 100,< 10,"CC(C)c1ccccc1NC(=O)c1c[nH]c2ccncc2c1=O [Cmpd 4, N-(2-isopropylphenyl)-4-oxo-1,4-dihydro-1,6-naphthyridine-3-carboxamide]"
< 25,< 10,"O=C(Nc1ccc2cc[nH]c2c1)c1c[nH]c2ccncc2c1=O [Cmpd 6, N-(1H-indol-6-yl)-4-oxo-1,4-dihydro-1,6-naphthyridine-3-carboxamide]"
25 to 100,< 10,"CC1(c2cc(F)c(NC(=O)c3c[nH]c4cnccc4c3=O)cc2O)CCCCC1 [Cmpd 13, N-(2-fluoro-5-hydroxy-4-(1-methylcyclohexyl)phenyl)-4-oxo-1,4-dihydro-1,7-naphthyridine-3-carboxamide]"
